In US20070292888A1, “Methods for Measuring Enzyme Activities in Cells, Blood, Tumors and Tissues” (GEN-PATH PHARMACEUTICALS, INC., priority 2004, published 2007):

Molecular target: T1, kGDH (Homo sapiens, UniProt Q02218)
T1 construct: Log-phase growing cells were trypsinized and resuspended in TDM; endogenous in cells
T1 sequence (Q02218 41-1023): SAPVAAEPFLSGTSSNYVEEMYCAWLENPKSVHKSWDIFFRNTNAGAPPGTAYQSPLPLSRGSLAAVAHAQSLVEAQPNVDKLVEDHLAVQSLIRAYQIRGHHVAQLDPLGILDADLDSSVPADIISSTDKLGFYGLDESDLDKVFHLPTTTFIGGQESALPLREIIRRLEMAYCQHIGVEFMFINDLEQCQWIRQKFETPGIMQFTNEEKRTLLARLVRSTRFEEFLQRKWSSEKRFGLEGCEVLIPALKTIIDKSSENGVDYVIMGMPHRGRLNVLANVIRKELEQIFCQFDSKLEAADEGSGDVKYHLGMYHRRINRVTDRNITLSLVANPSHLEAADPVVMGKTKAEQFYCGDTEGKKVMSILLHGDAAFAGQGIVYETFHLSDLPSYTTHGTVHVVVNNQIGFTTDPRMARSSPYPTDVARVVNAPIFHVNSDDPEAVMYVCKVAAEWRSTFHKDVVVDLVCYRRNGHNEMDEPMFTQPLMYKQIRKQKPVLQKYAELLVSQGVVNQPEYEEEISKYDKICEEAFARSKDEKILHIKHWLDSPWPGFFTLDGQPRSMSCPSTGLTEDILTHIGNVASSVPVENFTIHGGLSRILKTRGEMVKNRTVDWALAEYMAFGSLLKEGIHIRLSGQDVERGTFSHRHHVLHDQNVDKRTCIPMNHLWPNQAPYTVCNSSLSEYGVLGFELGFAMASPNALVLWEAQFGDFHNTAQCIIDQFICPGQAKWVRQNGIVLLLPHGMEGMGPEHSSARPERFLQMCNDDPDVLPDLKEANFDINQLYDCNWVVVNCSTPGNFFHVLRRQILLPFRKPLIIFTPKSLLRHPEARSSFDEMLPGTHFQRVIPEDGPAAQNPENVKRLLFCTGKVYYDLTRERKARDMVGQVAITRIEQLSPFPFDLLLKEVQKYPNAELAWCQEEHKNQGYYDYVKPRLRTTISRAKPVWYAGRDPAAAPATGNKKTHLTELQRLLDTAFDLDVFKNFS
T1 sequence (P36957 68-453 partner): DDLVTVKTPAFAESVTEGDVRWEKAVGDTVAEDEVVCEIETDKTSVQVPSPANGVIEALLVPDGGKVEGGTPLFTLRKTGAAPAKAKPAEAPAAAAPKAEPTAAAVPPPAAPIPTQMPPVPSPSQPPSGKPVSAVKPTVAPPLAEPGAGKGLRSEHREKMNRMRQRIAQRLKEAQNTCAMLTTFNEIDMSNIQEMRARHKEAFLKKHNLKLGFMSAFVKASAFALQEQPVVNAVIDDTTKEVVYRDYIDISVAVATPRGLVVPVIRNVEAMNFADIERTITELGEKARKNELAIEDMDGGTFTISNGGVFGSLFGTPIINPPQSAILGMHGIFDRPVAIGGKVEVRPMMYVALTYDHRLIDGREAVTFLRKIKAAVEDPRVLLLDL
T1 sequence (P09622 36-509 partner): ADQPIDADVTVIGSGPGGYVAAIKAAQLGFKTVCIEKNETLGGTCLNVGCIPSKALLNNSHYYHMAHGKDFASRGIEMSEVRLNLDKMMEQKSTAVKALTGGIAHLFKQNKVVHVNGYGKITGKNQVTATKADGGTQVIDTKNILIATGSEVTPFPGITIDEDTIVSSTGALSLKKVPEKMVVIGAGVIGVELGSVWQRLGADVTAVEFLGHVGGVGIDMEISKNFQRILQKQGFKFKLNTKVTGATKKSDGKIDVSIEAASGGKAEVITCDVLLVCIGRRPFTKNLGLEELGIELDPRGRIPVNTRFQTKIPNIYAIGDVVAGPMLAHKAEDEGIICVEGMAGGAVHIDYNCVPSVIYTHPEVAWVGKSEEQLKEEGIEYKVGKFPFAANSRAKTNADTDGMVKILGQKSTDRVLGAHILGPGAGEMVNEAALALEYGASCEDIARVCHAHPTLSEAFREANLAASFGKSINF
Assay: Cell-based kGDH inhibition in thiamine-depleted media, 96-well format
Conditions: treated cells, 48 hours treatment
Experimental: We determined the IC50 of compounds that inhibit the activity of the TPP utilizing enzymes TK, kGDH and PDH in a convenient 96-well format using an optimized version of the method described in the previous Examples.
The high thiamine levels in conventional cell culture media (e.g., DMEM (12 μM), RPMI (3 μM)) masks the inhibitory effect of such inhibitors. To measure the IC50 of such inhibitors, thus, a thiamine depleted DMEM, containing all the ingredients of normal DMEM except for thiamine (HyClone, custom order), was used. Thiamine-depleted media (TDM) is made up with thiamine-depleted DMEM, 10% FBS, which contains negligible amount of thiamine (estimated to be ˜3-5% nM) and 1% Penicillin-streptomycin.
Log-phase growing cells were trypsinized and resuspended in TDM. Optimization of the initial cell counts is recommended for each cell line to ensure that enzyme activity can be observed at the beginning and that healthy growth can continue. For cell lines that have a doubling time of approximately 24 hours and cellular transketolase levels high enough to be reliably detected with five thousand (5K) cells such as HCT116 and HT1080, 8K cells are recommended.
Media containing 8K cells (95 μl) were used to seed individual wells in a 96-well clear-bottom cell cultured treated sterile plate. […] Enzymatic inhibition was expressed as percent of control wells that were not treated with compounds. […]

- IC50: 86 nM
Compound: Cc1ccc(C[n+]2csc(CCO)c2C)c(N)n1 [N3PT, 3-[(2-amino-6-methyl-3-pyridinyl)methyl]-5-(2-hydroxyethyl)-4-methyl thiazolium]
